Values of other authors as cited in patent publication US3972859A, “Novel decapeptide amide analogs of leuteinizing hormone-releasing hormone” (Takeda Chemical Industries, Ltd., priority 1974, dated 1976).

System: LH-RH activity
Conditions: relative to parent LH-RH; literature (Monahan et al 1973)

[D-Ala^6 ]LH-RH
potency, % of the potency of the parent LH-RH: 350-450%
